Source: patent publication US8969542B2, “HPV polyepitope constructs and uses thereof” (priority 2007, dated 2015)
Where a SMILES comes first, the peptide text is derived from it. Where no end group is shown, it is not given here.

What was measured:
[1] = test system: CD8+ spleen cells of HLA transgenic mice (HLA-A01/Kb, F1 HLA-A02/KbxBalb/c, HLA-A11/Kb, HLA-A24/Kb); experiment: Immunogenicity after HPV DNA construct immunization, direct ex vivo IFNγ ELISPOT; format: in vivo, mouse; details: for ICCG6137 SFC/10^6 cells Delta / ICCG6138 SFC/10^6 cells Delta: HLA transgenic mice (HLA-A01/A02/A11/A24), CD8+ cells restimulated with WT peptide 10 μg/mL; for Delta SFC/10^6 cells: HLA-A24 epitopes, HLA-A24/Kb mice, median of mouse pools
Description: The immunogenicity of HPV HLA class I-restricted epitopes encoded in the DNA constructs was tested in the relevant HLA transgenic mice. […] To ensure an equal distribution of mice between different groups, a randomisation procedure based on body weight was performed. Female and male mice (age between 8 and 24 weeks) were ranked by body weight, extreme light or heavy animals were excluded. The remaining animals were grouped by sequentially assigning animals for the 2 experiments.
Mice were pre-treated with cardiotoxin (Sigma, C9759) on day −4 by bilateral intramuscular injection of 100 μl (2×50 μl) of a 10 μM cardiotoxin solution. Four days later, all mice were immunised with 100 μg HPV-DNA plasmid (diluted to 1 mg/ml in PBS) by bilateral injection of 50 μg in the m. tibialis anterior. […]
(§1) Mice were euthanized and spleen cells (SPC) were isolated 13 days after immunization. […] Spleen cells of DNA- and peptide-immunized HLA-A11/Kb mice were analyzed individually. SPC of all negative control mice were pooled per 2 mice, resulting in 3 data points for each peptide tested.
(§2) A direct ex vivo IFNγ ELISPOT assay was used as surrogate CTL readout. Basically, purified CD8+ cells were incubated with the individual HPV-specific HLA-restricted peptides (10 μg/mL) loaded on the appropriate antigen presenting cells (APC), in anti-mouse IFNγ antibody-coated ELISPOT plates. […] After 20 h incubation, IFNγ-producing cells were visualized by further developing the plates with biotinylated anti-mouse IFNγ antibody, streptavidin-HRP and AEC as substrate.
(§3) Some of the CTL epitopes included in the DNA constructs are analoged sequences of the wild type viral epitopes. For these particular epitopes, only the wild type sequences were used as in vitro stimulus for CTL readout.

[2] = test system: CD8+ spleen cells of HLA transgenic mice (HLA-A01/Kb, F1 HLA-A02/KbxBalb/c, HLA-A11/Kb, HLA-A24/Kb); experiment: Immunogenicity after peptide pool/IFA immunization, direct ex vivo IFNγ ELISPOT; format: in vivo, mouse; details: for Peptide Pool SFC/10^6 cells Delta: HLA transgenic mice (HLA-A01/A02/A11/A24), CD8+ cells restimulated with WT peptide 10 μg/mL
Description: CTL binding epitopes were evaluated for their immunogenicity in different HLA transgenic mice. To this, a single immunization with CTL peptide pools together with a common HTL epitope emulsified in IFA was performed and up to 14 days later, CD8+ spleen cells were isolated and evaluated for epitope specificity using a direct ex vivo IFNγ ELISPOT assay.
Peptides were dissolved in DMSO at a concentration of 10 mg/mL. For each of the 4 DNA constructs, the corresponding HLA-restricted peptides were pooled per HLA type (5 to 7 CTL peptides/pool). A known HTL peptide ([…]) was added and the peptide pools were diluted in PBS to the required peptide concentration (i.e. 25 μg of each CTL peptide and 120 μg HTL peptide in 50 μl). After adding an equal volume of IFA (Pierce, lot DG56079), the mixture was emulsified by forcing it through a small orifice. Mice were immunized subcutaneously at the base of the tail with 50 μl peptide/IFA mixture.
As negative control for the peptide-immunized mice, 18 mice (in total) were injected with a PBS/IFA mixture.
as §1, §2, §3

HLA A2402 = HLA A2402 (Homo sapiens, UniProt P04439, D101N/D140Y/D185E/E176V/E190D/F33S/G103R/G107R/I119L/I121M/I306V/K335N/L105A/L180Q/L300P/N151K/N90K/Q86E/Q94H/R106L/R138H/R89G/T104I/T345S/V100E/W191G/Y123F); experiment: HLA class I competition binding assay using soluble HLA
HLA A3002 = HLA A3002 (Homo sapiens, UniProt P04439, D101N/D140H/D185E/E176R/F33S/G80R/H175R/K168Q/Q94H/R138E/R41S/V100E); experiment: as above
HLA A3101 = HLA A3101 (Homo sapiens, UniProt P04439, A270S/D185E/E176V/E277Q/F33T/G231S/G80R/H175R/I121M/I218V/I322F/K168Q/L300P/L318F/M331R/P217A/Q94H/R138Q/T323A/T345S/T97I/V358M); experiment: as above
HLA A0301 = molecular target: T1, HLA A0301 (Homo sapiens, UniProt P04439); experiment: as above
T1 construct: endogenous in cells

HLA A6801 = HLA A6801 (Homo sapiens, UniProt P04439, A269V/D185E/E176V/E277Q/E87N/F33Y/G231S/I121M/I166T/I218V/L180W/L300P/L318F/N151K/P208A/P217A/Q86R/R169H/T345S); experiment: as above
HLA A2302 = HLA A2302 (Homo sapiens, UniProt P04439, D101N/D140Y/D185E/E176V/E190D/F33S/G103R/G107R/H175R/I119L/I121M/I306V/K168Q/K335N/L105A/L180W/L300P/N151K/N90K/P307H/Q86E/Q94H/R106L/R138H/R89G/T104I/T345S/V100E/W191G/Y123F); experiment: as above
HLA A2902 = HLA A2902 (Homo sapiens, UniProt P04439, A270S/D101N/D185E/E176V/E277Q/E87Q/F33T/G231S/H175R/I121M/I218V/I322F/K168Q/L300P/L318F/M331R/P208A/P217A/Q86L/T323A/T345S/V100A/V358M); experiment: as above
HLA A3301 = HLA A3301 (Homo sapiens, UniProt P04439, A270S/D185E/E176V/E277Q/E87N/F33T/G231S/H175R/I121M/I218V/I322F/K168Q/K210R/L300P/L318F/M331R/P217A/Q86R/Q94H/R138Q/T323A/T345S/T97I/V358M/Y195H); experiment: as above
[3] = immunization with DNA construct ICCG 6137, IFNγ ELISPOT
[4] = immunization with DNA construct ICCG 6138, IFNγ ELISPOT
[5] = immunization with pool of peptides emulsified in IFA, IFNγ ELISPOT

Molecule | IC50 (HLA A2402) | IC50 (HLA A3002) | IC50 (HLA A2302) | IC50 (HLA A2902) | also measured
154 (FYSRIRELRY; Human papilloma virus) [compound 154] | – | – | – | – | ICCG6137 SFC/10^6 cells Delta [1, 3]: 45 SFC/10^6 cells; ICCG6137 SFC/10^6 cells Ratio ([1]; immunization with DNA construct ICCG 6137, HLA transgenic mice, response ratio, WT peptide 10 μg/mL, IFNγ ELISPOT): 2.0; ICCG6138 SFC/10^6 cells Delta [1, 4]: 33 SFC/10^6 cells; ICCG6138 SFC/10^6 cells Ratio ([1]; immunization with DNA construct ICCG 6138, HLA transgenic mice, response ratio, WT peptide 10 μg/mL, IFNγ ELISPOT): 1.3; Peptide Pool SFC/10^6 cells Delta [2, 5]: 165 SFC/10^6 cells; Peptide Pool SFC/10^6 cells Ratio ([2]; immunization with pool of peptides emulsified in IFA, HLA transgenic mice, response ratio, WT peptide 10 μg/mL, IFNγ ELISPOT): 7.3
CC[C@H](C)[C@H](NC(=O)[C@H](Cc1ccc(O)cc1)NC(=O)[C@H](Cc1ccccc1)NC(=O)[C@@H](NC(=O)[C@H](CC(N)=O)NC(=O)[C@H](Cc1ccc(O)cc1)NC(=O)CN)[C@@H](C)O)C(=O)N[C@@H](CCC(=O)O)C(=O)N[C@@H](Cc1ccccc1)C(=O)O [compound 41] | 16 nM | 1260 nM | – | – | –
CSCC[C@H](N)C(=O)N[C@@H](Cc1ccc(O)cc1)C(=O)N[C@H](C(=O)N[C@@H](CS)C(=O)N[C@@H](CS)C(=O)N[C@@H](Cc1c[nH]cn1)C(=O)N[C@H](C(=O)N1CCC[C@H]1C(=O)N[C@@H](CC(C)C)C(=O)O)C(C)C)C(C)C [compound 42] (H-MYVCCHVPL-OH; N-terminus and C-terminus assumed) | – | – | – | – | Delta SFC/10^6 cells ([1]; DNA construct ICCG6149): 1 SFC/10^6 cells; Delta SFC/10^6 cells ([1]; DNA construct ICCG6150): 1 SFC/10^6 cells; Delta SFC/10^6 cells ([2]; HLA-A24 epitopes, HLA-A24/Kb mice, Peptide Pool, median of mouse pools): 1 SFC/10^6 cells
CC(C)C[C@H](NC(=O)[C@H](CC(C)C)NC(=O)[C@@H](NC(=O)[C@H](CS)NC(=O)[C@H](Cc1ccccc1)NC(=O)[C@H](CS)NC(=O)[C@H](CC(C)C)NC(=O)[C@H](CC(C)C)NC(=O)[C@@H](N)Cc1ccccc1)C(C)C)C(=O)O [compound 51] (H-FLLCFCVLL-OH; N-terminus and C-terminus assumed) | – | – | – | – | ICCG6137 SFC/10^6 cells Delta [1, 3]: 8 SFC/10^6 cells; ICCG6138 SFC/10^6 cells Delta [1, 4]: 8 SFC/10^6 cells; Peptide Pool SFC/10^6 cells Delta [2, 5]: 195 SFC/10^6 cells
CC(C)C[C@H](NC(=O)[C@H](CS)NC(=O)[C@@H](NC(=O)[C@H](CO)NC(=O)[C@H](Cc1ccccc1)NC(=O)[C@H](CS)NC(=O)[C@H](CC(C)C)NC(=O)[C@H](CC(C)C)NC(=O)[C@@H](N)Cc1ccccc1)C(C)C)C(=O)O [compound 75] (H-FLLCFSVCL-OH; N-terminus and C-terminus assumed) | – | – | – | – | ICCG6137 SFC/10^6 cells Delta [1, 3]: 1 SFC/10^6 cells; ICCG6138 SFC/10^6 cells Delta [1, 4]: 1 SFC/10^6 cells; Peptide Pool SFC/10^6 cells Delta [2, 5]: 75 SFC/10^6 cells
ATLQDIVLH [compound 38] | – | – | – | – | IC50 (HLA A3101): 543 nM; IC50 (HLA A0301): 211 nM
DSVYGDTLER [compound 37] | – | – | – | – | IC50 (HLA A3101): 246 nM; IC50 (HLA A0301): 193 nM; IC50 (HLA A6801): 44 nM
FYSKVSEFRW [compound 65] | 4.5 nM | 1360 nM | 8.8 nM | 1780 nM | –
FYSRIRELRF [compound 88] | 3.2 nM | > 20000 nM | 1 nM | – | –
HYTNWKFIF [compound 63] | 8.5 nM | 4850 nM | 16 nM | 433 nM | –
KSLFGMSLMK [compound 15] | – | – | – | – | IC50 (HLA A3101): 230 nM; IC50 (HLA A0301): 3.9 nM; IC50 (HLA A6801): 887 nM
LSSALEIPY [compound 46] | – | 175 nM | – | – | –
LYGVSFSEL [compound 18] | 3.1 nM | > 20000 nM | 7.2 nM | > 20000 nM | –
LYNLLIRCF [compound 44] | – | – | 10 nM | > 20000 nM | –
NTELYNLLI [compound 70] | – | > 20000 nM | – | > 20000 nM | –
PYLHSRLVVF [compound 61] | 38.7 nM | – | 2.8 nM | 4370 nM | –
QVVPAYNISK [compound 35] | – | – | – | – | IC50 (HLA A0301): 308 nM

Molecule | IC50 (HLA A2402) | IC50 (HLA A3002) | IC50 (HLA A2302) | IC50 (HLA A2902) | also measured
RQMNMSQWIK [compound 79] | – | – | – | – | IC50 (HLA A3101): 45 nM; IC50 (HLA A6801): 2560 nM
RTEVYQFAFR [compound 82] | – | – | – | – | IC50 (HLA A3101): 8 nM; IC50 (HLA A3301): 696 nM; IC50 (HLA A6801): 439 nM
STAAALYWYK [compound 13] | – | – | – | – | IC50 (HLA A3301): 128 nM
STVSVGTAK [compound 34] | – | – | – | – | IC50 (HLA A3301): > 20000 nM
SYFGMSFIHF [compound 39] | 17.5 nM | 1540 nM | – | – | –
TVSATQLVK [compound 33] | – | – | – | – | IC50 (HLA A3101): 6140 nM
VFTFPHAFPF [compound 84] | 90.4 nM | > 20000 nM | 15.9 nM | 57 nM | –
VFTFPNPFPF [compound 62] | – | > 20000 nM | 12 nM | 603 nM | –
VTTRYPLLR [compound 81] | – | – | – | – | IC50 (HLA A0301): 158 nM; IC50 (HLA A3301): > 20000 nM; IC50 (HLA A6801): 3150 nM
VVFIYIPLF [compound 64] | 276 nM | 268 nM | – | 302 nM | –
VYDFAFRDLCI [compound 20] | 22 nM | > 20000 nM | 8.9 nM | > 20000 nM | –
VYGTTLEKL [compound 66] | 26 nM | 1240 nM | 8.2 nM | > 20000 nM | –
VYQFAFKDL [compound 87] | 4 nM | – | 1.1 nM | > 20000 nM | –
VYVCAFAWLL [compound 86] | 8.4 nM | > 20000 nM | 8.1 nM | 2350 nM | –
VYVFCFLLPM [compound 43] | 178 nM | > 20000 nM | 57 nM | 5280 nM | –
YYITETGIW [compound 85] | 8.5 nM | > 20000 nM | 2 nM | > 20000 nM | –
YYMTDAGTW [compound 40] | 3.2 nM | – | – | 3410 nM | –
